Results reported in the NIST ThermoML archive (doi:10.1016/j.jct.2012.05.003).
± gives the expanded uncertainty stated by the source.

Settings: for molar entropy: Vacuum adiabatic calorimetry

O=C1c2ccccc2-c2ccccc21 [9(9H)-fluorenone]
Settings	molar entropy [J/K/mol]	vapor or sublimation pressure [kPa]
5 K, 101.33 kPa, Crystal	0.2 ± 0.017	–
10 K, 101.33 kPa, Crystal	1.47 ± 0.025	–
20 K, 101.33 kPa, Crystal	7.81 ± 0.083	–
30 K, 101.33 kPa, Crystal	16.59 ± 0.083	–
40 K, 101.33 kPa, Crystal	26.02 ± 0.11	–
50 K, 101.33 kPa, Crystal	35.44 ± 0.13	–
60 K, 101.33 kPa, Crystal	44.68 ± 0.16	–
70 K, 101.33 kPa, Crystal	53.57 ± 0.17	–
80 K, 101.33 kPa, Crystal	62.15 ± 0.2	–
90 K, 101.33 kPa, Crystal	70.45 ± 0.32	–
100 K, 101.33 kPa, Crystal	78.48 ± 0.32	–
120 K, 101.33 kPa, Crystal	93.91 ± 0.34	–
140 K, 101.33 kPa, Crystal	108.7 ± 0.37	–
160 K, 101.33 kPa, Crystal	123.08 ± 0.39	–
180 K, 101.33 kPa, Crystal	137.18 ± 0.42	–
200 K, 101.33 kPa, Crystal	151.1 ± 0.43	–
220 K, 101.33 kPa, Crystal	164.93 ± 0.46	–
240 K, 101.33 kPa, Crystal	178.73 ± 0.48	–
260 K, 101.33 kPa, Crystal	192.51 ± 0.51	–
280 K, 101.33 kPa, Crystal	206.3 ± 0.53	–
298.15 K, 101.33 kPa, Crystal	218.82 ± 0.55	–
300 K, 101.33 kPa, Crystal	220.1 ± 0.56	–
320 K, 101.33 kPa, Crystal	233.91 ± 0.58	–
340 K, 101.33 kPa, Crystal	247.73 ± 0.61	–
340 K, 101.33 kPa, Liquid	291.47 ± 0.68	–
356.52 K, 101.33 kPa, Crystal	259.19 ± 0.62	–
356.52 K, 101.33 kPa, Liquid	305.07 ± 0.71	–
360 K, 101.33 kPa, Liquid	307.89 ± 0.71	–
368.12 K, Liquid, Inclined piston gauge	–	0.0161 ± 0.0008
378.12 K, Liquid, Inclined piston gauge	–	0.0308 ± 0.0008
380 K, 101.33 kPa, Liquid	323.92 ± 0.74	–
388.12 K, Liquid, Inclined piston gauge	–	0.0562 ± 0.0009
398.12 K, Liquid, Inclined piston gauge	–	0.0987 ± 0.0009
400 K, 101.33 kPa, Liquid	339.6 ± 0.76	–
408.12 K, Liquid, Inclined piston gauge	–	0.1672 ± 0.0009
418.12 K, Liquid, Inclined piston gauge	–	0.2744 ± 0.001
420 K, 101.33 kPa, Liquid	354.94 ± 0.79	–
428.11 K, Liquid, Inclined piston gauge	–	0.4382 ± 0.0013
438.11 K, Liquid, Inclined piston gauge	–	0.6825 ± 0.0015
440 K, 101.33 kPa, Liquid	369.98 ± 0.82	–
448.11 K, Liquid, Inclined piston gauge	–	1.038 ± 0.0019
458.11 K, Liquid, Inclined piston gauge	–	1.544 ± 0.0023
460 K, 101.33 kPa, Liquid	384.73 ± 0.85	–
464.96 K, Liquid, Twin ebulliometer	–	2 ± 0.008
468.11 K, Liquid, Inclined piston gauge	–	2.25 ± 0.003
472.82 K, Liquid, Twin ebulliometer	–	2.666 ± 0.0082
478.11 K, Liquid, Inclined piston gauge	–	3.216 ± 0.0039
480 K, 101.33 kPa, Liquid	399.2 ± 0.87	–
483.11 K, Liquid, Inclined piston gauge	–	3.821 ± 0.0045
493.2 K, Liquid, Twin ebulliometer	–	5.333 ± 0.0086
500 K, 101.33 kPa, Liquid	413.42 ± 0.9	–
506.16 K, Liquid, Twin ebulliometer	–	7.999 ± 0.0093
515.86 K, Liquid, Twin ebulliometer	–	10.67 ± 0.01
520 K, 101.33 kPa, Liquid	427.39 ± 0.92	–
523.7 K, Liquid, Twin ebulliometer	–	13.33 ± 0.011
531.86 K, Liquid, Twin ebulliometer	–	16.66 ± 0.012
538.62 K, Liquid, Twin ebulliometer	–	19.93 ± 0.014
547.52 K, Liquid, Twin ebulliometer	–	25.02 ± 0.016
547.53 K, Liquid, Twin ebulliometer	–	25.02 ± 0.015
556.48 K, Liquid, Twin ebulliometer	–	31.17 ± 0.018
565.49 K, Liquid, Twin ebulliometer	–	38.56 ± 0.021
574.56 K, Liquid, Twin ebulliometer	–	47.37 ± 0.025
583.67 K, Liquid, Twin ebulliometer	–	57.81 ± 0.028
592.85 K, Liquid, Twin ebulliometer	–	70.11 ± 0.033
602.07 K, Liquid, Twin ebulliometer	–	84.53 ± 0.038
611.34 K, Liquid, Twin ebulliometer	–	101.32 ± 0.05
620.67 K, Liquid, Twin ebulliometer	–	120.78 ± 0.05
630.05 K, Liquid, Twin ebulliometer	–	143.23 ± 0.06
639.47 K, Liquid, Twin ebulliometer	–	169 ± 0.07
648.95 K, Liquid, Twin ebulliometer	–	198.46 ± 0.07
658.48 K, Liquid, Twin ebulliometer	–	231.99 ± 0.08
668.07 K, Liquid, Twin ebulliometer	–	269.98 ± 0.09

Settings	mass density [kg/m3]
373 K, 101.33 kPa, Liquid, Pycnometric method	1090 ± 10

Settings	Triple point temperature [K]
Crystal, Adiabatic calorimetry	356.52 ± 0.039
